According to ChEMBL document CHEMBL1201862, “PubChem BioAssay data set” (2004):
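1) Cells in 96-well plates. 2) Compound, 48 h, 5 concentrations. 3) Linear interpolation between surrounding doses. 4) Unreached endpoint = highest concentration. The concentration for 50% growth inhibition is given as GI50.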 Active and inactive are the calls of the source. Rule as the data show it: active = GI50 up to about 1.1 µM and inactive = higher.

Assays:
Test in all cases: NCI anticancer screen, dose series, 48 h
[1] = test system: A498
[2] = test system: A549
[3] = test system: ACHN
[4] = test system: CAKI-1
[5] = test system: CCRF-CEM
[6] = test system: COLO 205
[7] = test system: DLD-1
[8] = test system: DMS-114
[9] = test system: DMS-273
[10] = test system: EKVX
[11] = test system: HCC 2998
[12] = test system: HCT-116
[13] = test system: HCT-15
[14] = test system: HL-60
[15] = test system: HOP-18
[16] = test system: HOP-62
[17] = test system: HOP-92
[18] = test system: HT-29
[19] = test system: IGROV-1
[20] = test system: K562
[21] = test system: KM-20L2
[22] = test system: KM12
[23] = test system: LOX IMVI
[24] = test system: LXFL 529
[25] = test system: M14
[26] = test system: Malme-3M
[27] = test system: NCI-H226
[28] = test system: NCI-H23
[29] = test system: NCI-H460
[30] = test system: NCI-H522
[31] = test system: OVCAR-4
[32] = test system: OVCAR-5
[33] = test system: OVCAR-8
[34] = test system: RPMI-8226
[35] = test system: RXF 393
[36] = test system: RXF 631
[37] = test system: SF-268
[38] = test system: SF-295
[39] = test system: SF-539
[40] = test system: SK-MEL-28
[41] = test system: SK-MEL-2
[42] = test system: SK-MEL-5
[43] = test system: SK-OV-3
[44] = test system: SN12C
[45] = test system: SNB-19
[46] = test system: SNB-75
[47] = test system: SW-620
[48] = test system: TK-10
[49] = test system: U-251
[50] = test system: UACC-257
[51] = test system: UACC-62
[52] = test system: UO-31
[53] = test system: XF498
[54] = test system: 786-0
[55] = test system: M19-MEL
[56] = test system: MOLT-4
[57] = test system: OVCAR-3
[58] = test system: SR

With `CCOC(=O)C(=O)NC12CC3CC(CC(C3)C1)C2` the GI50 [1] was > 100 µM (inactive), the GI50 [2] was > 100 µM (inactive) and the GI50 [3] was > 100 µM (inactive). The GI50 [4] was > 100 µM (inactive), the GI50 [5] was > 100 µM (inactive) and the GI50 [6] was > 100 µM (inactive). For the same molecule, the GI50 [7] was > 100 µM (inactive), the GI50 [8] was > 100 µM (inactive) and the GI50 [9] was > 100 µM (inactive). For the same molecule, the GI50 [10] was > 100 µM (inactive), the GI50 [11] was > 100 µM (inactive) and the GI50 [12] was > 100 µM (inactive). For the same molecule, the GI50 [13] was greater than 100 µM, the GI50 [14] was > 100 µM (inactive) and the GI50 [15] was > 100 µM (inactive). For the same molecule, the GI50 [16] was > 100 µM (inactive), the GI50 [17] was > 100 µM (inactive) and the GI50 [18] was > 100 µM (inactive). For the same molecule, the GI50 [19] was > 100 µM (inactive), the GI50 [20] was > 100 µM (inactive) and the GI50 [21] was > 100 µM (inactive). The GI50 [22] was > 100 µM (inactive), the GI50 [23] was 0.208 µM (active) and the GI50 [24] was > 100 µM (inactive). For the same molecule, the GI50 [25] was > 100 µM (inactive), the GI50 [26] was > 100 µM (inactive) and the GI50 [27] was > 100 µM (inactive). The GI50 [28] was > 100 µM (inactive), the GI50 [29] was > 100 µM (inactive) and the GI50 [30] was > 100 µM (inactive). For the same molecule, the GI50 [31] was > 100 µM (inactive), the GI50 [32] was > 100 µM (inactive) and the GI50 [33] was > 100 µM (inactive). The GI50 [34] was > 100 µM (inactive), the GI50 [35] was > 100 µM (inactive) and the GI50 [36] was > 100 µM (inactive). The GI50 [37] was > 100 µM (inactive), the GI50 [38] was > 100 µM (inactive) and the GI50 [39] was > 100 µM (inactive). The GI50 [40] was > 100 µM (inactive), the GI50 [41] was > 100 µM (inactive) and the GI50 [42] was > 100 µM (inactive). For the same molecule, the GI50 [43] was > 100 µM (inactive), the GI50 [44] was > 100 µM (inactive) and the GI50 [45] was > 100 µM (inactive). For the same molecule, the GI50 [46] was > 100 µM (inactive), the GI50 [47] was > 100 µM (inactive) and the GI50 [48] was > 100 µM (inactive). The GI50 [49] was > 100 µM (inactive), the GI50 [50] was > 100 µM (inactive) and the GI50 [51] was > 100 µM (inactive). For the same molecule, the GI50 [52] was > 100 µM (inactive) and the GI50 [53] was > 100 µM (inactive).

For `C=CCCCn1ccc2ccccc21`, the GI50 [54] was > 100 µM (inactive), the GI50 [1] was > 100 µM (inactive) and the GI50 [2] was > 100 µM (inactive). For the same molecule, the GI50 [3] was > 100 µM (inactive), the GI50 [5] was > 100 µM (inactive) and the GI50 [6] was > 100 µM (inactive). For the same molecule, the GI50 [7] was > 100 µM (inactive), the GI50 [8] was > 100 µM (inactive) and the GI50 [10] was > 100 µM (inactive). The GI50 [11] was > 100 µM (inactive), the GI50 [12] was > 100 µM (inactive) and the GI50 [13] was greater than 100 µM. For the same molecule, the GI50 [14] was > 100 µM (inactive), the GI50 [15] was > 100 µM (inactive) and the GI50 [16] was > 100 µM (inactive). The GI50 [17] was 7.45 µM (inactive), the GI50 [18] was > 100 µM (inactive) and the GI50 [19] was > 100 µM (inactive). For the same molecule, the GI50 [20] was > 100 µM (inactive), the GI50 [21] was > 100 µM (inactive) and the GI50 [22] was > 100 µM (inactive). For the same molecule, the GI50 [23] was > 100 µM (inactive), the GI50 [24] was > 100 µM (inactive) and the GI50 [25] was > 100 µM (inactive). For the same molecule, the GI50 [55] was > 100 µM (inactive), the GI50 [56] was > 100 µM (inactive) and the GI50 [26] was > 100 µM (inactive). For the same molecule, the GI50 [27] was > 100 µM (inactive), the GI50 [28] was > 100 µM (inactive) and the GI50 [29] was > 100 µM (inactive). The GI50 [30] was > 100 µM (inactive), the GI50 [57] was > 100 µM (inactive) and the GI50 [32] was > 100 µM (inactive). The GI50 [33] was > 100 µM (inactive), the GI50 [34] was > 100 µM (inactive) and the GI50 [35] was > 100 µM (inactive). The GI50 [36] was > 100 µM (inactive), the GI50 [37] was > 100 µM (inactive) and the GI50 [38] was > 100 µM (inactive). The GI50 [39] was > 100 µM (inactive), the GI50 [40] was > 100 µM (inactive) and the GI50 [41] was > 100 µM (inactive). The GI50 [42] was > 100 µM (inactive), the GI50 [43] was > 100 µM (inactive) and the GI50 [44] was > 100 µM (inactive). The GI50 [45] was > 100 µM (inactive), the GI50 [46] was > 100 µM (inactive) and the GI50 [58] was > 100 µM (inactive). The GI50 [47] was > 100 µM (inactive), the GI50 [48] was > 100 µM (inactive) and the GI50 [49] was > 100 µM (inactive). The GI50 [50] was > 100 µM (inactive), the GI50 [51] was 75.9 µM (inactive) and the GI50 [52] was > 100 µM (inactive). For the same molecule, the GI50 [53] was > 100 µM (inactive).
